Experimental data from ChEMBL document CHEMBL1201862, “PubChem BioAssay data set” (2004).
Blank lines part the entries; values can stand above or below the compound they belong to. Active and inactive are the calls of the source.

Tests used:
[1] = biological target: T1, Sphingosine 1-phosphate receptor 4 (Homo sapiens, UniProt O95977); assay: Late-stage fluorescence dose response cell-based assay to identify agonists of the Sphingosine 1-Phosphate Receptor 4 (S1P4): purchased compounds EC50. [Related pubchem assays (depositor defined):AID1509, AID1523, AID1563, AID1686, AID1701, AID1801]; format: functional
T1 sequence (O95977 whole entry): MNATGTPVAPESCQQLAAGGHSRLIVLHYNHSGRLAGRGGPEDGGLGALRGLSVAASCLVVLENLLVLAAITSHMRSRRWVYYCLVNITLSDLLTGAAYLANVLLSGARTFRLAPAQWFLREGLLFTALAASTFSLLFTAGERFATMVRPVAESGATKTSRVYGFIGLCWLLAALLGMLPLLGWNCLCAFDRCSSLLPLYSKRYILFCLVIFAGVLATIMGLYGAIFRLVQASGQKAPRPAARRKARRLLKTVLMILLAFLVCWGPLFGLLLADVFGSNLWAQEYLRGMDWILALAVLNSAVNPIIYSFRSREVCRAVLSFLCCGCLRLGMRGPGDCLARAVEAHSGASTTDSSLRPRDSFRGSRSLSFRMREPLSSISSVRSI

[2] = biological target: T2, G-protein coupled receptor 35 (Homo sapiens, UniProt Q9HC97); assay: SAR analysis of Agonists of the GPR35 Receptor using an Image-Based Assay - Set 4. [Related pubchem assays (depositor defined):AID2013, AID2026]; format: functional
T2 sequence (Q9HC97 whole entry): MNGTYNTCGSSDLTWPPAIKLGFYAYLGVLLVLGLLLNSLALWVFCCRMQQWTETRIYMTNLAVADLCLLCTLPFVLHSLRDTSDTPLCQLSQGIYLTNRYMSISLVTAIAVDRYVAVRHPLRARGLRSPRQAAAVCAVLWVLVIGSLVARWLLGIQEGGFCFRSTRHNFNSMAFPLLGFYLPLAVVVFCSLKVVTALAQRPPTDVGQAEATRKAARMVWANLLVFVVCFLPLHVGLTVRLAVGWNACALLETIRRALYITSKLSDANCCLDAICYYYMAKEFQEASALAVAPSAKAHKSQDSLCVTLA

[3] = biological target: T3, Cannabinoid receptor 2 (Homo sapiens, UniProt P34972); assay: SAR analysis of antagonists of the Cannabinoid Receptor 2 using an Image-Based Assay - Set 3. [Related pubchem assays (depositor defined):AID2013, AID2026]; format: functional
T3 sequence (P34972 whole entry): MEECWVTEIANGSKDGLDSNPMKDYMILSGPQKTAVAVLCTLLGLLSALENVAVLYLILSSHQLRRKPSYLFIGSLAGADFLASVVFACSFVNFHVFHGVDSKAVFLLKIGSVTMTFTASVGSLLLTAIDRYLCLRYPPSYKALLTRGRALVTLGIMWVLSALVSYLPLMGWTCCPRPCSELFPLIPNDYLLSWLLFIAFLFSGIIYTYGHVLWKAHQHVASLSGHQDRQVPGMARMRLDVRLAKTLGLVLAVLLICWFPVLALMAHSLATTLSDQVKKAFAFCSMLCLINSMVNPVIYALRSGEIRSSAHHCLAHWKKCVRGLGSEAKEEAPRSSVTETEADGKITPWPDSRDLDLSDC

[4] = biological target: G-protein coupled receptor 55 (Homo sapiens, UniProt Q9Y2T6); assay: SAR Analysis of Selective Antagonists of GPR55 using an Image-Based Assay - Set 4. [Related pubchem assays (depositor defined):AID2013, AID2026]; format: functional;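 note: antagonism of response to 5 µM lysophosphatidylinositol agonist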
G-protein coupled receptor 55, sequence (Q9Y2T6 whole entry): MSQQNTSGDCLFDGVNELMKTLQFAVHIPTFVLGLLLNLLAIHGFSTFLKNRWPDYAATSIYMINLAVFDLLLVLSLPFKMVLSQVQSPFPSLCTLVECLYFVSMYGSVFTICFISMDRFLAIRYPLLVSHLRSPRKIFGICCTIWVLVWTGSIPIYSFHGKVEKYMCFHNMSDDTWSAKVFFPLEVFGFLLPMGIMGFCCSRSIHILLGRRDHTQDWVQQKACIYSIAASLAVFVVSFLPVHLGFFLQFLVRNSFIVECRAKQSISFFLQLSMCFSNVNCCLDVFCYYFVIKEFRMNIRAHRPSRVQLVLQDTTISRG

[5] = biological target: T3, Cannabinoid receptor 2; assay: SAR analysis of agonists of the Cannabinoid Receptor 2 using an Image-Based Assay - Set 3. [Related pubchem assays (depositor defined):AID2013, AID2026]; format: functional
[6] = biological target: T2, G-protein coupled receptor 35; assay: SAR analysis of Antagonists of the GPR35 Receptor using an Image-Based Assay - Set 6. [Related pubchem assays (depositor defined):AID2013, AID2026]; format: functional
[7] = biological target: T4, Cannabinoid receptor 1 (Homo sapiens, UniProt P21554); assay: SAR analysis of antagonists of the Cannabinoid Receptor 1 using an Image-Based Assay - Set 4. [Related pubchem assays (depositor defined):AID2013, AID2026]; format: functional
T4 sequence (P21554 whole entry): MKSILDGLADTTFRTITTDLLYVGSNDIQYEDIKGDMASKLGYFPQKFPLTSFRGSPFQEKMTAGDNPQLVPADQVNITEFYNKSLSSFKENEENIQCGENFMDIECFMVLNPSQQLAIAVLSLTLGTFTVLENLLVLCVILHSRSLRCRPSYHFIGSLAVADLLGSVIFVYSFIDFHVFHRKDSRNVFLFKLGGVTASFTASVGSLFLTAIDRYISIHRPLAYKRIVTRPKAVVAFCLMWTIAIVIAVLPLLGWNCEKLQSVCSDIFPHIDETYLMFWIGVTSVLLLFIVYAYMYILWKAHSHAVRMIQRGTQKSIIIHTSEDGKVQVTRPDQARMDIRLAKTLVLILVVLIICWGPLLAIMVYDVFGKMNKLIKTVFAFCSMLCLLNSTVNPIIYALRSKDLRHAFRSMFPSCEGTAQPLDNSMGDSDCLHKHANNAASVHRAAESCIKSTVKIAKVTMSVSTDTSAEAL

[8] = biological target: T4, Cannabinoid receptor 1; assay: SAR analysis of agonists of the Cannabinoid Receptor 1 using an Image-Based Assay - Set 4. [Related pubchem assays (depositor defined):AID2013, AID2026]; format: functional
[9] = biological target: Hexokinase (Trypanosoma brucei, UniProt Q38C41); assay: Confirmation assay for inhibitors of Trypanosoma brucei hexokinase 1-Analogue-first series. [Related pubchem assays (depositor defined):AID1430, AID1632, AID2516, AID2560, AID2579, AID2600, AID449725, AID492951]; format: functional
Hexokinase, sequence (Q38C41 whole entry): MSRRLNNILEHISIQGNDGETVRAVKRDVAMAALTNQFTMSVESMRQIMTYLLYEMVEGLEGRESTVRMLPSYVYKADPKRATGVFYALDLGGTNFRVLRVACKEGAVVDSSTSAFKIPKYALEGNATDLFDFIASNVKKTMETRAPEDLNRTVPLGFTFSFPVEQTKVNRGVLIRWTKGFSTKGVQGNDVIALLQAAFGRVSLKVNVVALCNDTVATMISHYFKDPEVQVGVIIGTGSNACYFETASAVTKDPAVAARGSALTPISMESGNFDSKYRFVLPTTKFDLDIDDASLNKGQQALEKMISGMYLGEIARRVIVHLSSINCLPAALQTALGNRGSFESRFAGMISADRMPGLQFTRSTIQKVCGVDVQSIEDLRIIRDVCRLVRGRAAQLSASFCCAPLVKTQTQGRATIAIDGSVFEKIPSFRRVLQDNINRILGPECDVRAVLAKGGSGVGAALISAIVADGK

[10] = biological target: T5, Short transient receptor potential channel 4 (Mus musculus, UniProt Q9QUQ5); assay: TRPC4 positive allosteric modulators, dose response, cell-based, HEK293 TRPC4/mu-opioid, Fluo-4 calcium, EC20 DAMGO (AID 434941); format: functional
T5 sequence (Q9QUQ5 whole entry): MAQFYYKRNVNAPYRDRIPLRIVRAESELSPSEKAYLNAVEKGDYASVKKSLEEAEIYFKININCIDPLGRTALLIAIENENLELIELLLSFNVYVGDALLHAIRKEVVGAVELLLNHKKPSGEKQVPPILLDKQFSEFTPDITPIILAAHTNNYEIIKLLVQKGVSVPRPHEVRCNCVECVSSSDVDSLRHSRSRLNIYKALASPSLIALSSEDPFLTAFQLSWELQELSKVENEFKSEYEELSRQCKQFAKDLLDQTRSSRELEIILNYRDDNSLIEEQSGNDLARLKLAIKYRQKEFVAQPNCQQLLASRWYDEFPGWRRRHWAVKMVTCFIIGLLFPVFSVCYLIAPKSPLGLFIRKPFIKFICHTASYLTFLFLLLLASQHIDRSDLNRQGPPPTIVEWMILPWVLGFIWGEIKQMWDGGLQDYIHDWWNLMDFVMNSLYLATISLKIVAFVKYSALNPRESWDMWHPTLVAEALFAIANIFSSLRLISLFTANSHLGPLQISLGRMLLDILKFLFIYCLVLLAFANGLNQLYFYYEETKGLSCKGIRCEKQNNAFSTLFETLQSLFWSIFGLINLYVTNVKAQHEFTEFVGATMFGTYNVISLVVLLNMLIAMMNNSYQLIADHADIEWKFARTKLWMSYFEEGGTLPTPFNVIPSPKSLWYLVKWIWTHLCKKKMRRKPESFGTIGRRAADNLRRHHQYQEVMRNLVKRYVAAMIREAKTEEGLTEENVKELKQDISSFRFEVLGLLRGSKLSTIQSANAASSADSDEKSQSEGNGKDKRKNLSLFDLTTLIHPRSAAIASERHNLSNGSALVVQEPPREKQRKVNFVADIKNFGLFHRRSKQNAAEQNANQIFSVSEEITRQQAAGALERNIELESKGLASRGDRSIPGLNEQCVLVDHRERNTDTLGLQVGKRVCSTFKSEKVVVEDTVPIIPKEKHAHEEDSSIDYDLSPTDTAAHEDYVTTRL

[11] = biological target: Alkaline phosphatase, placental type (Homo sapiens, UniProt P05187); assay: PLAP enzyme inhibitors, confirmation, biochemical, luminescence (AID 1512); format: functional
Alkaline phosphatase, placental type, sequence (P05187 whole entry): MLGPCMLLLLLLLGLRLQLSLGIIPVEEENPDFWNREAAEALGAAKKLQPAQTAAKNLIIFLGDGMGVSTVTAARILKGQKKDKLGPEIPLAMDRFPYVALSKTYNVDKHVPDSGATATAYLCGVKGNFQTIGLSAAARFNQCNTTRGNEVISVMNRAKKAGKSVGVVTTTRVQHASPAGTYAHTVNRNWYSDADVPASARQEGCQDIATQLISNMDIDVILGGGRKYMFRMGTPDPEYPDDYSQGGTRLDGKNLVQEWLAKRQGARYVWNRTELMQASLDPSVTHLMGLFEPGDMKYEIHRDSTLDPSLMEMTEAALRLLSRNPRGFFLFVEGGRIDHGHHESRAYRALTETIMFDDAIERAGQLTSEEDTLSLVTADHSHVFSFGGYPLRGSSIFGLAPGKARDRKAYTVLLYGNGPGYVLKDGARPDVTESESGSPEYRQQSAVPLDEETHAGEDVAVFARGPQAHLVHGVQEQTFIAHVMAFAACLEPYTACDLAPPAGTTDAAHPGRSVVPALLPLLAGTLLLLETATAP

[12] = biological target: Glyceraldehyde-3-phosphate dehydrogenase (Homo sapiens, UniProt P04406)
Glyceraldehyde-3-phosphate dehydrogenase, sequence (P04406 whole entry): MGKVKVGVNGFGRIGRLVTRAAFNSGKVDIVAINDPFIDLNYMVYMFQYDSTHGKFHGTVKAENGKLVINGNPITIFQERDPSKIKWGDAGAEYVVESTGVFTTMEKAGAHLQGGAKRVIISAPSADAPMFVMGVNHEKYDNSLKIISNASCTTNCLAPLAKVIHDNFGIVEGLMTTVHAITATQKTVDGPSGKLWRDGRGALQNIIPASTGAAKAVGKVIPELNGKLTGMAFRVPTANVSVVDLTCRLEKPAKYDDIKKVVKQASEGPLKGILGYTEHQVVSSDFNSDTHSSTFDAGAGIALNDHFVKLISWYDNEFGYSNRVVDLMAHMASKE

- EC50 [1]: > 50 µM (inactive)
SMILES: Cc1ccc(OCC(=O)Nc2ccc(Cl)cc2F)c([N+](=O)[O-])n1

- EC50 [2]: > 32 µM (inactive)
- IC50 [3]: 9.2 µM (active)
- IC50 [4]: 5.4 µM (active)
- EC50 [5]: > 32 µM (inactive)
- IC50 [6]: > 32 µM (inactive)
- IC50 [7]: 0.981 µM (active)
- EC50 [8]: > 32 µM (inactive)
SMILES: Cc1[nH]nc(-c2ccc(O)cc2O)c1-c1ccc(Br)cc1

SMILES: O=c1c2cccnc2sn1-c1ccccc1
- IC50 [9]: 2.27 µM (active)

- EC50 [10]: 4.22 µM (active)
SMILES: Cc1cccc(/C=N/NC(=O)c2cc(Br)ccc2O)n1

- IC50 [11]: > 100 µM (inactive)
- IC50 [12]: > 100 µM (not active)
SMILES: CN(C)C(=O)c1cc(-c2cc(F)c(Cl)cc2Cl)n[nH]1
